Patent US20250346931A1, “METHODS FOR PRODUCING HALOGENATED COMPOUNDS” (BIGELOW LABORATORY FOR OCEAN SCIENCES, priority 2022, published 2025)
Like-named read-outs stand apart in the source and are kept apart here.

How the values were obtained:
[1] = tested on: rumen-derived microbial communities; assay: Inhibition of methane production in rumen-derived microbial culture; assay type: cell-based, dairy cattle; details: for IC50: Bos taurus, read-out: concentration giving 50% suppression of methane production
Experimental: FIG. 5 illustrates the production and testing process of small organic halogenated compounds for inhibition of methanogenesis. In this example, the small organic halogenated compounds produced by VBPO are incubated in a microbial culture system derived from rumen fluid obtained from dairy cattle, to determine their relative abilities at inhibiting methane production. Briefly, 1,1-dibromoacetone, co-product bromoform and derivative dibromomethane, were separately added to the culture systems. The rate of methane production was monitored in each reaction (FIGS. 6A-6C).

[2] = ciVCPO reaction velocity with PAA or H2O2 as peroxide source, Michaelis-Menten fit; assay type: biochemical
Description: This Example describes a method for utilizing peracetic acid as a substrate for production of small, halogenated organic compounds in lieu of hydrogen peroxide using ciVCPO. PAAM is a readily available source of peracetic acid, consisting of 32% w/v peracetic acid and 6% w/v hydrogen peroxide. As peracetic acid is not an efficient two electron reductant, and unlike hydrogen peroxide, cannot produce oxygen in the presence of hypochlorous acid and catalytic quantities of chloride ions, hydrogen peroxide must be removed to avoid oxygen production employing the enzyme catalase, derived from bovine liver.
The reaction velocity is fitted according to Michaelis-Menten kinetics to give v=f([PAA] or [H2O2]).

[3] = rumen-derived microbial communities

Molecule: BrCBr [dibromomethane, reference compound]
- IC50 [1, 3]: 150 nM

Molecule: BrC(Br)Br [bromoform, reference compound]
- IC50 [1, 3]: 200 nM

Molecule: CC(=O)C(Br)Br [1,1-dibromoacetone]
- IC50 [1]: 125000 nM
- relative effectiveness for inhibiting methane production among compounds screened ([1]; compared with bromoform and dibromomethane): least effective

B1: ciVCPO: vanadium chloroperoxidase from Curvularia inaequalis produced in Pichia pastoris (protein, UniProt P49053 1-609, looked up)
Vanadium chloroperoxidase: MGSVTPIPLPKIDEPEEYNTNYILFWNHVGLELNRVTHTVGGPLTGPPLSARALGMLHLAIHDAYFSICPPTDFTTFLSPDTENAAYRLPSPNGANDARQAVAGAALKMLSSLYMKPVEQPNPNPGANISDNAYAQLGLVLDRSVLEAPGGVDRESASFMFGEDVADVFFALLNDPRGASQEGYHPTPGRYKFDDEPTHPVVLIPVDPNNPNGPKMPFRQYHAPFYGKTTKRFATQSEHFLADPPGLRSNADETAEYDDAVRVAIAMGGAQALNSTKRSPWQTAQGLYWAYDGSNLIGTPPRFYNQIVRRIAVTYKKEEDLANSEVNNADFARLFALVDVACTDAGIFSWKEKWEFEFWRPLSGVRDDGRPDHGDPFWLTLGAPATNTNDIPFKPPFPAYPSGHATFGGAVFQMVRRYYNGRVGTWKDDEPDNIAIDMMISEELNGVNRDLRQPYDPTAPIEDQPGIVRTRIVRHFDSAWELMFENAISRIFLGVHWRFDAAAARDILIPTTTKDVYAVDNNGATVFQNVEDIRYTTRGTREDPEGLFPIGGVPLGIEIADEIFNNGLKPTPPEIQPMPQETPVQKPVGQQPVKGMWEEEQAPVVKEAP
- Vmax, PAA relative to Vmax, H2O2 ([2]; FIG. 13 legend): approximately twice
- vmax and Km with PAA as substrate compared with hydrogen peroxide ([2]; constant NaCl 150 mM): higher vmax and Km than hydrogen peroxide
